Test results taken from patent US7220784B2, “Substituted stilbenes and their reactions” (priority 2000, dated 2007).
“And” between values parts separate entries of the source, which are not always exact repeats. Identical values can stand only once. Like-named read-outs stand apart in the source and are kept apart here.

Columns and labels:
Maximum tolerated dose = settings: mouse, in vivo; mice
Excerpt: The in vitro studies reported in Table 11 illustrate the structure requirements necessary for biological activity. Modifications of the A ring have shown that the methoxy groups can be replaced by alkoxy or alkyl (28,31a,32a) whilst retaining their ability to inhibit assembly of isolated tubulin. Similarly, molecules with alkyl substituents on the ethene bridge (19,20,46) retain activity both as inhibitors of tubulin assembly and are growth inhibitory in vitro. The pharmacophore consists of a stilbene in a cis configuration with a small alkyl or O-alkyl substituent at the 4-position of the B ring. […] These agents show good activity in the shape-change (permeability) assay. This test is used as an in vitro assay of vascular damage. […] 97–64H was given at either ⅔ of the maximum tolerated dose (MTD=200 mg/kg) or at ¾ of the MTD to mice bearing liver metastatic T50:80 tumours. Tumours were removed and examined for evidence of vascular damage at 2 hr and 4 hr following drug administration. Similarly a dose equivalent to ¾ of the MTD was administered and the tumours examined 24 hr and 48 hr following administration of drug. […] These effects are seen within 2 hours.

[1] = Pharmacokinetic profile in mice; format: in vivo; settings: 200 mg/kg
[2] = tested on: H460 human lung xenograft; assay: Tumour damage in H460 human lung xenograft grown subcutaneously; format: in vivo; settings: 0.75×MTD, i.p., twenty four hours following injection
Description: The effect of compounds 97–64H and 97–96 (quinone compound) was tested on H460 human lung xenograft grown subcutaneously by injecting equitoxic doses of the compounds (0.75×MTD).

[3] = tested on: colchicine binding site on tubulin; assay: Competition for the colchicine binding site on tubulin
[4] = Photoisomerisation of trans-CA-4 ex situ, composition of mixture (GC); format: physicochemical
K562 = assay: IC50 of aliquots after ex situ irradiation in a photochemical reactor; settings: Homo sapiens, K562, light or radiation study, read-out: IC50 (K562) (nM)
[5] = GC, benzene, 400 W Hg lamp, 0 mins (Table 3)
[6] = GC, benzene, 400 W Hg lamp, 0.5 mins (Table 3)
[7] = GC, benzene, 400 W Hg lamp, 1.5 mins (Table 3)
[8] = GC, benzene, 400 W Hg lamp, 3.0 mins (Table 3)
[9] = GC, benzene, 400 W Hg lamp, 5.0 mins (Table 3)
[10] = GC, benzene, 400 W Hg lamp, 6.5 mins (Table 3)
[11] = GC, benzene, 400 W Hg lamp, 8.0 mins (Table 3)
[12] = GC, benzene, 400 W Hg lamp, 10.0 mins (Table 3)
[13] = GC, benzene, 400 W Hg lamp, 12.5 mins (Table 3)
[14] = GC, benzene, 400 W Hg lamp, 15.0 mins (Table 3)
[15] = GC, benzene, 400 W Hg lamp, 17.5 mins (Table 3)
[16] = GC, benzene, 400 W Hg lamp, 20.0 mins (Table 3)
[17] = photoisomerisation ex situ, 0 mins (Table 5)
[18] = photoisomerisation ex situ, 0.5 mins (Table 5)
[19] = photoisomerisation ex situ, 1.0 mins (Table 5)
[20] = photoisomerisation ex situ, 1.5 mins (Table 5)
[21] = photoisomerisation ex situ, 2.0 mins (Table 5)
[22] = photoisomerisation ex situ, 3.0 mins (Table 5)
[23] = photoisomerisation ex situ, 4.0 mins (Table 5)
[24] = photoisomerisation ex situ, 5.0 mins (Table 5)
[25] = photoisomerisation ex situ, 7.5 mins (Table 5)
[26] = photoisomerisation ex situ, 10.0 mins (Table 5)
[27] = photoisomerisation ex situ, 12.5 mins (Table 5)
[28] = photoisomerisation ex situ, 15.0 mins (Table 5)
[29] = photoisomerisation ex situ, 17.5 mins (Table 5)
[30] = photoisomerisation ex situ, 20.0 mins (Table 5)

With `COc1ccc(C=Cc2cc(OC)c(OC)c(OC)c2)cc1F` [Compound 97-64H] the MTD (Maximum tolerated dose) was 200 mg/kg, the Cmax ([1]; mouse, in vivo, po) was 1.49 µg/mL and the half-life ([1]; mouse, in vivo, po, absorption half life) was 15 min. The half-life ([1]; mouse, in vivo, po, elimination half life) was 32 min, the “concentration achieved in vivo” value ([1]; oral) was 1490 µg/mL and the “concentration achieved in vivo (molar)” value ([1]; oral) was 4600 µM. The tumour damage [2] was “extensive damage to the tumours” and the “Colchicine % Inhibition” value [3] was 79% and 70%.
For `COc1ccc(/C=C/c2cc(OC)c(OC)c(OC)c2)cc1O` [trans-CA-4, trans-combretastatin A-4], the “% cis-stilbene” value [4, 5] was 0%, the “% phenanthrene” value [4, 5] was 0% and the “% trans-stilbene” value [4, 5] was 100%. The “% cis-stilbene” value [4, 6] was 0%, the “% phenanthrene” value [4, 6] was 0% and the “% trans-stilbene” value [4, 6] was 100%. The “% cis-stilbene” value [4, 7] was 0%, the “% phenanthrene” value [4, 7] was 0% and the “% trans-stilbene” value [4, 7] was 100%. The “% cis-stilbene” value [4, 8] was 13%, the “% phenanthrene” value [4, 8] was 0% and the “% trans-stilbene” value [4, 8] was 87%. For the same compound, the “% cis-stilbene” value [4, 9] was 31%, the “% phenanthrene” value [4, 9] was 0% and the “% trans-stilbene” value [4, 9] was 69%. The “% cis-stilbene” value [4, 10] was 45%, the “% phenanthrene” value [4, 10] was 0% and the “% trans-stilbene” value [4, 10] was 55%. The “% cis-stilbene” value [4, 11] was 47%, the “% phenanthrene” value [4, 11] was 0% and the “% trans-stilbene” value [4, 11] was 53%. For the same compound, the “% cis-stilbene” value [4, 12] was 53%, the “% phenanthrene” value [4, 12] was 0% and the “% trans-stilbene” value [4, 12] was 44%. For the same compound, the “% cis-stilbene” value [4, 13] was 68%, the “% phenanthrene” value [4, 13] was 0% and the “% trans-stilbene” value [4, 13] was 32%. For the same compound, the “% cis-stilbene” value [4, 14] was 71%, the “% phenanthrene” value [4, 14] was 0% and the “% trans-stilbene” value [4, 14] was 29%. For the same compound, the “% cis-stilbene” value [4, 15] was 74%, the “% phenanthrene” value [4, 15] was 4% and the “% trans-stilbene” value [4, 15] was 22%. The “% cis-stilbene” value [4, 16] was 73%, the “% phenanthrene” value [4, 16] was 4% and the “% trans-stilbene” value [4, 16] was 23%. The “% cis” value [4, 17] was 0.3%, the “% phenanthrene” value [4, 17] was 0% and the “% trans” value [4, 17] was 99.7%. The “% cis” value [4, 18] was 2.0%, the “% phenanthrene” value [4, 18] was 0% and the “% trans” value [4, 18] was 98.0%. For the same compound, the “% cis” value [4, 19] was 3.9%, the “% phenanthrene” value [4, 19] was 0% and the “% trans” value [4, 19] was 96.1%. The “% cis” value [4, 20] was 6.3%, the “% phenanthrene” value [4, 20] was 0% and the “% trans” value [4, 20] was 93.7%. For the same compound, the “% cis” value [4, 21] was 7.3%, the “% phenanthrene” value [4, 21] was 0% and the “% trans” value [4, 21] was 92.7%. For the same compound, the “% cis” value [4, 22] was 25.7%, the “% phenanthrene” value [4, 22] was 0% and the “% trans” value [4, 22] was 74.3%. The “% cis” value [4, 23] was 37.3%, the “% phenanthrene” value [4, 23] was 0% and the “% trans” value [4, 23] was 62.3%. The “% cis” value [4, 24] was 47.9%, the “% phenanthrene” value [4, 24] was 0% and the “% trans” value [4, 24] was 52.1%. For the same compound, the “% cis” value [4, 25] was 56.6%, the “% phenanthrene” value [4, 25] was 1.4% and the “% trans” value [4, 25] was 40.2%. For the same compound, the “% cis” value [4, 26] was 63.1%, the “% phenanthrene” value [4, 26] was 2.9% and the “% trans” value [4, 26] was 34.0%. For the same compound, the “% cis” value [4, 27] was 64.4%, the “% phenanthrene” value [4, 27] was 3.4% and the “% trans” value [4, 27] was 32.2%. The “% cis” value [4, 28] was 64.6%, the “% phenanthrene” value [4, 28] was 3.7% and the “% trans” value [4, 28] was 31.7%. The “% cis” value [4, 29] was 65.1%, the “% phenanthrene” value [4, 29] was 4.1% and the “% trans” value [4, 29] was 30.8%. The “% cis” value [4, 30] was 65.7%, the “% phenanthrene” value [4, 30] was 3.7% and the “% trans” value [4, 30] was 30.6%. It also gave an IC50 (K562; 0 h) of 4000 nM, an IC50 (K562; 0.5 min) of 310 nM and an IC50 (K562; 1 min) of 530 nM. It also gave an IC50 (K562; 0.025 h) of 50 nM, an IC50 (K562; 2 min) of 20 nM and an IC50 (K562; 0.05 h) of 12 nM. The IC50 (K562; 4 min) was 9 nM, the IC50 (K562; 5 min) was 10 nM and the IC50 (K562; 0.125 h) was 3 nM. It also gave an IC50 (K562; 10 min) of 6 nM, an IC50 (K562; 12.5 min) of 4 nM and an IC50 (K562; 0.25 h) of 1 nM. For the same compound, the IC50 (K562; 17.5 min) was 3 nM and the IC50 (K562; 20 min) was 2 nM.
